In assay [1] the target is MNK2a (pre-activated GST-MNK2a) (Homo sapiens (Human), UniProt Q9HBH9). Nature of the assay: MNK2a in vitro kinase assay (assay 1), ADP-Glo. The format is biochemical. To be noted: read-out: Mnk2 IC50. Here is the method:
A. MNK2a In Vitro Kinase Assay (Assay 1)
The inhibition of kinase activity of MNK2a was assessed using pre-activated GST-MNK2a. The white, 384-well OptiPlate F plates were purchased from PerkinElmer. The ADP-Glo Kinase Assay (including ultra pure ATP) was purchased from Promega (V9103). Activated MNK2a was obtained as described in WO2011/104340. […] ID No. 5 of WO 2011/104340 by the C-terminal —CONH2 group, was purchased from Thermo Fisher Scientific. All other materials were of highest grade commercially available. Compounds are tested in either serial dilutions or single dose concentrations. The compound stock solutions are 10 mM in 100% DMSO The serial compound dilutions are prepared in 100% DMSO followed by 1:27.3 intermediate dilution in assay buffer. The final DMSO concentration in assay will be <3%.
In the 384-well plates 3 μl of test compound from the intermediate dilution is mixed with 4 μl of the activated MNK2 enzyme (final concentration of 10 nM) and 4 μl of the peptide (final concentration of 25 μM)/ultra pure ATP (final concentration of 20 μM), all dissolved in assay buffer. This step is followed by an incubation time of 90 min, then 10 μl of ADP Glo reagent are added, followed by 40 min of incubation. Then 20 μl of kinase detection reagent are admixed. The plates are sealed and after an incubation period of 30 min, the luminescence signal is measured in an Envision reader to determine the amount of produced ADP. All incubation steps are performed at room temperature.
The assay buffer consists of 20 mM HEPES, 2 mM DTT, 0.01% BSA, 20 mM MgCl2 and 0.1% Pluronic F-127.
The luminescent signal generated is proportional to the ADP concentration produced and is correlated with activated MNK2 activity. The analysis of the data is performed by the calculation of the percentage of ATP consumption of activated MNK2 in the presence of the test compound compared to the consumption of ATP in the presence of activated MNK2 without compound. (RLU(sample)−RLU(low control))*100/(RLU(high value)−RLU(low control))
[RLU=Relative Luminescence Units]
Values of more than 100% CTL are normally related to compound/sample specific physico-chemical properties (e.g. solubility, light absorbance, fluorescence).
IC50 values based on dose response curves are calculated with the AssayExplorer software.
On the technique in general: ADP-Glo first removes unused ATP, then detects ADP through luciferase.

For assay [2], the target named is MNK1a (pre-activated GST-MNK1a) (Homo sapiens (Human), UniProt Q9BUB5). Nature of the assay: MNK1 in vitro kinase assay (assay 2), Z'-LYTE. The settings on record: for inhibition at 1 µM: compound concentration of 1 μM, read-out: Mnk1 % Inh. The format is biochemical. From the text: B. MNK1 In Vitro Kinase Assay (Assay 2)
MNK1 Data can be obtained from the MNK1 Z′-LYTE® assay. The MNK1 Z′-LYTE® screening protocol and assay conditions are also described on www.invitrogen.com.
The assay is described as follows:
The Z′-LYTE® biochemical assay employs a fluorescence-based, coupled-enzyme format and is based on the differential sensitivity of phosphorylated and non-phosphorylated peptides to proteolytic cleavage. The peptide substrate is labeled with two fluorophores—one at each end—that make up a FRET pair.
In the primary reaction, the kinase transfers the gamma-phosphate of ATP to a single tyrosine, serine or threonine residue in a synthetic FRET-peptide. In the secondary reaction, a site-specific protease recognizes and cleaves non-phosphorylated FRET-peptides. Phosphorylation of FRET-peptides suppresses cleavage by the Development Reagent. Cleavage disrupts FRET between the donor (i.e., coumarin) and acceptor (i.e., fluorescein) fluorophores on the FRET-peptide, whereas uncleaved, phosphorylated FRET-peptides maintain FRET. A ratiometric method, which calculates the ratio (the Emission Ratio) of donor emission to acceptor emission after excitation of the donor fluorophore at 400 nm, is used to quantitate reaction progress, as shown in the equation below. Emission Ratio=Coumarin Emission(445 nm)/Fluorescein Emission(520 nm)
The inhibition of kinase activity of MNK1a was assessed using pre-activated GST-MNK1a. The 2×MKNK1 (MNK1) mixture is prepared in 50 mM HEPES pH 7.5, 0.01% BRIJ-35, 10 mM MgCl2, 4 mM MnCl2, 1 mM EGTA, 2 mM DTT. The final 10 μL Kinase Reaction consists of 13.5-54 ng MKNK1 (MNK1) and 2 μM Ser/Thr 07 in 50 mM HEPES pH 7.5, 0.01% BRIJ-35, 10 mM MgCl2, 2 mM MnCl2, 1 mM EGTA, 1 mM DTT. After the 1 hour Kinase Reaction incubation, 5 μL of a 1:32768 dilution of Development Reagent A is added.
The Test Compounds are screened in 1% DMSO (final) in the well.
All Peptide/Kinase Mixtures are diluted to a 2×working concentration in the MNK1 Kinase Buffer.
All ATP Solutions are diluted to a 4×working concentration in Kinase Buffer (50 mM HEPES pH 7.5, 0.01% BRIJ-35, 10 mM MgCl2, 1 mM EGTA).
Development Reagent Solution:
The Development Reagent is diluted in Development Buffer
Bar-coded Corning, low volume NBS, 384-well plate (Corning Cat. #3676)
1. 2.5 μL—4×Test Compound
2. 5 μL—2×Peptide/Kinase Mixture
5. 60-minute Kinase Reaction incubation at room temperature
6. 5 μL—Development Reagent Solution
8. 60-minute Development Reaction incubation at room temperature
9. Read on fluorescence plate reader and analyze the data
The following equations are used for each set of data points:
Correction for Background Fluorescence: FISample−FITCFI Ctl Emission Ratio (using values corrected for background fluorescence):Coumarin Emission (445 nm)/Fluorescein Emission (520 nm)
% Phosphorylation (% Phos): 1−((Emission Ratio×F100%)−C100%)/((C0%−C100%)+[Emission Ratio×(F100%−F0%)])*100
% Inhibition: 1−(% PhosSample/% Phos0% Inhibition Ctl)*100 FI=Fluorescence Intensity C100%=Average Coumarin emission signal of the 100% Phos. Control C0%=Average Coumarin emission signal of the 0% Phos. Control F100%=Average Fluorescein emission signal of the 100% Phos. Control F0%=Average Fluorescein emission signal of the 0% Phos. Control
SelectScreen® Kinase Profiling Service uses XLfit from IDBS. The dose response curve is curve fit to model number 205 (sigmoidal dose-response model).

Molecules are shown by their SMILES.

MNK2a (pre-activated GST-MNK2a), sequence (Q9HBH9 whole entry): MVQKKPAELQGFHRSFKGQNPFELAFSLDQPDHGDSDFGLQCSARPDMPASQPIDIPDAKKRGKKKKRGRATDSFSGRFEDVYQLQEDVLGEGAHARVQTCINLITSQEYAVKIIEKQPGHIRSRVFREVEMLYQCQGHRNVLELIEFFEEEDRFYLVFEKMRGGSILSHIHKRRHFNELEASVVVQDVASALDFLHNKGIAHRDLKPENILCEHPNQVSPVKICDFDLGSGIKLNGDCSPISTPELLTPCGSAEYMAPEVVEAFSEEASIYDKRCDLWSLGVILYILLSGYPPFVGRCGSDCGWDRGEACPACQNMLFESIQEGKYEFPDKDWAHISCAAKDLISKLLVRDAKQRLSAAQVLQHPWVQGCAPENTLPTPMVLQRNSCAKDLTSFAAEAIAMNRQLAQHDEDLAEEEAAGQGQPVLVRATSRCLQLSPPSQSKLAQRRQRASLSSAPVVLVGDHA
MNK1a (pre-activated GST-MNK1a), sequence (Q9BUB5 other isoform, or with tags, fused parts or gaps): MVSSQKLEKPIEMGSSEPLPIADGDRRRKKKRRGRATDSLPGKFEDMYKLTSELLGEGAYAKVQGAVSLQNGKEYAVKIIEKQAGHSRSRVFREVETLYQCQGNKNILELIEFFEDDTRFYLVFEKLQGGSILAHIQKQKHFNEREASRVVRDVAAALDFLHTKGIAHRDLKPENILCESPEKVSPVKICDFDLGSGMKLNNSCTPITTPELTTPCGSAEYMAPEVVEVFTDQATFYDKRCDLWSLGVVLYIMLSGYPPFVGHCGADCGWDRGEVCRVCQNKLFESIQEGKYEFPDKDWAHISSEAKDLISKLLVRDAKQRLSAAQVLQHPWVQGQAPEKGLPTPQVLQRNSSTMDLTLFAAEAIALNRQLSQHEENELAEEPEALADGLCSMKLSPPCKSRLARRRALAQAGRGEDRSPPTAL

Take `Cc1c(OCCCN2CCN(C)C(=O)C2)c(N=S(C)(C)=O)cc2ncnc(Nc3ccc(F)cc3O[C@H](C)C(F)(F)F)c12` [Example 1.01]: the IC50 (commonly the concentration at which inhibition is half-maximal) worked out at 5.5 nM in assay [1] and 162 nM in assay [2].

As for `Cc1c(OCCCN2CCCC2)c(N=S(C)(C)=O)cc2ncnc(Nc3ccc(F)cc3O[C@H](C)C(F)(F)F)c12` [Example 1.02], the IC50 came to 2.4 nM in assay [1] and 51 nM in assay [2].

As for `CCOc1c(N=S(C)(C)=O)cc2ncnc(Nc3ccc(F)cc3O[C@H](C)C(F)(F)F)c2c1C` [Example 1.03], the IC50 stood at 1.6 nM in assay [1] and 54 nM in assay [2].

`Cc1c(OCCN2CCOCC2)c(N=S(C)(C)=O)cc2ncnc(Nc3ccc(F)cc3O[C@H](C)C(F)(F)F)c12` [Example 1.04]: the IC50 in assay [1] came to 2.4 nM.

Regarding `COc1c(N=S2(=O)CC(OC)C2)cc2ncnc(Nc3ccc(F)cc3O[C@H](C)C(=O)NCC(F)(F)F)c2c1C` (some centres unmarked) [Example 2.01], the IC50 in assay [1] is 2.5 nM. Further, the inhibition at 1 µM in assay [2] was 103%.

Take `COc1c(N=S(C)(C)=O)cc2ncnc(Nc3ccc(F)cc3O[C@@H]3CO[C@H]4[C@@H]3OC[C@@H]4F)c2c1C` [Example 2.02]: the results for the IC50 in assay [1] and in assay [2] were 12.6 nM and 25 nM, respectively.

With `COc1c(N=S2(=O)CCCC2)cc2ncnc(Nc3ccc(F)cc3O[C@@H]3CO[C@@H]4CCO[C@@H]43)c2c1C` [Example 2.03], in assay [1], the IC50 turned out to be 1.2 nM. In addition, in assay [2], the inhibition at 1 µM was 105%.

For `COc1c(N=S2(=O)CCC(O)CC2)cc2ncnc(Nc3ccc(F)cc3O[C@@H]3CO[C@@H]4CCO[C@@H]43)c2c1C` (some centres unmarked) [Example 2.04], the IC50 in assay [1] was found to be 1.2 nM. Moreover, the inhibition at 1 µM in assay [2] was determined as 105%.

With `COc1c(N=S2(=O)CCCC2)cc2ncnc(Nc3ccc(F)cc3O[C@H](C)C(=O)N[C@@H](C)C(F)(F)F)c2c1C` [Example 2.05], the IC50 in assay [1] came to 2.5 nM. Moreover, the inhibition at 1 µM in assay [2] stood at 106%.

Consider `COc1c(N=S2(=O)CCC2)cc2ncnc(Nc3ccc(F)cc3O[C@@H]3CO[C@H]4[C@@H]3OC[C@H]4O)c2c1C` [Example 2.06], for which the IC50 stood at 1.2 nM in assay [1] and 18 nM in assay [2].

As to `COc1c(N=S2(=O)CCC2)cc2ncnc(Nc3ccc(F)cc3O[C@H]3COC[C@@H]3O)c2c1C` [Example 2.07], the 50% inhibitory concentration (IC50) in assay [1] was found to be 2.7 nM.

In the case of `COc1c(N=S2(=O)CCCCC2)cc2ncnc(Nc3ccc(F)cc3O[C@@H]3CO[C@@H]4CCO[C@@H]43)c2c1C` [Example 2.08], in assay [1], the IC50 was found to be 1.4 nM. The inhibition at 1 µM in assay [2] was 107%.

Turning to `COc1c(N=S2(=O)CCCC2)cc2ncnc(Nc3ccc(F)cc3O[C@@H]3CO[C@H]4[C@@H]3OC[C@H]4O)c2c1C` [Example 2.09], the figures for the IC50 in assay [1] and in assay [2] were 1.8 nM and 14 nM, respectively.

Turning to `COc1c(N=S2(=O)CCCC2)cc2ncnc(Nc3cccnc3O[C@@H]3CO[C@@H]4CCO[C@@H]43)c2c1C` [Example 2.10], the IC50 in assay [1] was determined as 3.3 nM. In addition, in assay [2], the inhibition at 1 µM came out at 96%.

As for `COc1c(N=S2(=O)CCC2)cc2ncnc(Nc3ccc(F)cc3O[C@H](C)C(=O)NCC(F)(F)F)c2c1C` [Example 2.11], the IC50 in assay [1] is 1.9 nM; in assay [2] it was 56 nM.

As for `COc1c(N=S(C)(=O)C2CCOCC2)cc2ncnc(Nc3ccc(F)cc3O[C@@H]3CO[C@@H]4CCO[C@@H]43)c2c1C` (some centres unmarked) [Example 2.12], in assay [1], the IC50 was 2.3 nM. In assay [2], the inhibition at 1 µM amounted to 95%.

On to `COc1c(N=S(C)(C)=O)cc2ncnc(Nc3ccc(F)cc3O[C@@H]3CO[C@H]4[C@@H]3OC[C@H]4O)c2c1C` [Example 2.13], for which, in assay [1], the IC50 is 1.7 nM. The inhibition at 1 µM in assay [2] is 103%.

`COc1c(N=S(C)(C)=O)cc2ncnc(Nc3ccc(F)cc3OC3CCOCC3)c2c1C` [Example 2.14]: the IC50 in assay [1] amounted to 3.7 nM. Besides, the inhibition at 1 µM in assay [2] amounted to 98%.

For the molecule `Cc1c(OCCCN2CCOCC2)c(N=S2(=O)CCC2)cc2ncnc(Nc3ccc(F)cc3O[C@H](C)C(F)(F)F)c12` [Example 2.15], the IC50 in assay [1] amounted to 1.4 nM; in assay [2], 42 nM.

On to `COc1c(N=S(C)(C)=O)cc2ncnc(Nc3ccc(F)cc3O[C@H](C)C(F)(F)F)c2c1C` [Example 2.16], for which the IC50 in assay [1] came to 3.5 nM. For the same molecule, the inhibition at 1 µM in assay [2] worked out at 102%.

Consider `COc1c(N=S2(=O)CCOCC2)cc2ncnc(Nc3ccc(F)cc3O[C@@H]3CO[C@@H]4CCO[C@@H]43)c2c1C` [Example 2.17], for which, in assay [1], the IC50 stood at 2.1 nM. Further, in assay [2], the inhibition at 1 µM stood at 94%.

For the molecule `COc1c(N=S2(=O)CCC2)cc2ncnc(Nc3ccc(F)cc3O[C@@H]3CO[C@H]4[C@@H]3OC[C@H]4OC)c2c1Cl` [Example 2.18], the IC50 in assay [1] turned out to be 1.3 nM. Besides, in assay [2], the inhibition at 1 µM amounted to 95%.

`COc1c(N=S(C)(=O)C(C)(C)C)cc2ncnc(Nc3ccc(F)cc3O[C@@H]3CO[C@@H]4CCO[C@@H]43)c2c1C` (some centres unmarked) [Example 2.19]: the IC50 in assay [1] came out at 2.8 nM. Further, the inhibition at 1 µM in assay [2] came out at 102%.

For the molecule `COc1c(N=S(C)(C)=O)cc2ncnc(Nc3cc4cn[nH]c4cc3OC(C)C)c2c1C` [Example 2.20], the IC50 in assay [1] amounted to 3.8 nM; in assay [2], 57 nM.

Regarding `COc1c(N=S2(=O)CCC2)cc2ncnc(Nc3cccnc3O[C@@H]3CO[C@@H]4CCO[C@@H]43)c2c1C` [Example 2.21], the IC50 is 1.9 nM in assay [1] and 33 nM in assay [2].

For the molecule `COc1c(N=S(C)(C)=O)cc2ncnc(Nc3ccc(F)cc3O[C@H]3CC[C@H](O)CC3)c2c1C` [Example 2.22], the IC50 in assay [1] stood at 2.5 nM. Further, the inhibition at 1 µM in assay [2] was determined as 98%.

On to `COc1c(N=S(C)(=O)CCO)cc2ncnc(Nc3ccc(F)cc3O[C@@H]3CO[C@@H]4CCO[C@@H]43)c2c1C` (some centres unmarked) [Example 2.23], for which the IC50 in assay [1] turned out to be 2 nM. The inhibition at 1 µM in assay [2] came to 105%.

In the case of `COc1c(N=S(C)(C)=O)cc2ncnc(Nc3ccc(F)cc3O[C@@H]3CO[C@H]4[C@@H]3OC[C@H]4OC)c2c1Cl` [Example 2.28], the IC50 in assay [1] was found to be 2.2 nM.

Source of the values: patent US10167296B2, “Sulfoximine substituted quinazolines for pharmaceutical compositions” (EVOTEC INTERNATIONAL GMBH, priority 2014, dated 2019).
